By melting point is commonly meant the temperature of the solid-liquid transition.

SMILES strings stand for the structures.

For `Cc1ccc(OCC(=O)O)c2c3c(C(N)=O)cccc3n(Cc3ccccc3)c12` [Example 50, [9-benzyl-5-carbamoyl-1-methylcarbazol-4-yl]oxyacetic acid], the melting point was 253 to 254 °C.

Turning to `COc1cc(OC(C)C(=O)O)c2c3c(C(N)=O)cccc3n(Cc3ccccc3)c2c1` (stereo not drawn) [Example 5, methyl [9-benzyl-4-carbamoyl-7-methoxycarbazol-5-yl]oxyacetic acid], the melting point lay in the range of 170 to 172 °C.

`COc1cc(OC)c2c3c(n(Cc4ccccc4)c2c1)CCCC3C(=O)NN` (stereo not drawn) [Example 1, 9-benzyl-5,7-dimethoxy-1,2,3,4-tetrahydrocarbazole-4-carboxylic acid hydrazide]: the melting point is 189 to 190 °C.

On to `COc1cc(OC)c2c3c(n(Cc4ccccc4)c2c1)CCCC3C(N)=O` (stereo not drawn) [Example 2, 9-benzyl-5,7-dimethoxy-1,2,3,4-tetrahydrocarbazole-4-carboxamide], for which the melting point fell in the range of 190 to 192 °C.

Take `NC(=O)c1cccc2c1c1c(OCC(=O)O)ccc(Cl)c1n2Cc1ccccc1` [Example 54, [9-benzyl-5-carbamoyl-1-chlorocarbazol-4-yl]oxyacetic acid]: the melting point fell in the range of 240 to 242 °C.

Consider `COc1cc(OCC(=O)[O-])c2c3c(n(Cc4ccccc4)c2c1)CCCC3C(N)=O.[Na+]` (stereo not drawn), for which the melting point was in the range of 251 to 254 °C.

Values taken from US6713645B1, “Substituted tricyclics” (Eli Lilly and Company, priority 1996, dated 2004).
